From patent US7247651B2, “2,7-substituted indoles” (Roche Palo Alto LLC, priority 2002, dated 2007)

Target: T1, recombinant human 5-HT6 receptor (Homo sapiens, UniProt P50406)
T1 construct: expressed in transfected cells; cell membranes used
Assay: in vitro radioligand binding, competition for [3H]LSD binding in membranes of HEK293 cells
Details: [3H]LSD (5 nM), HEK293 cell membranes, pH 7.4, 37° C., 60 min
Protocol: This example illustrates in vitro radioligand binding studies of Compound of Formula I.
The binding activity of compounds of this invention in vitro was determined as follows. Duplicate determinations of ligand affinity are made by competing for binding of [^3H]LSD in cell membranes derived from HEK293 cells stably expressing recombinant human 5-HT6 receptor.
All determinations were made in assay buffer containing 50 mM Tris-HCl, 10 mM MgSO4, 0.5 mM EDTA, 1 mM ascorbic acid, pH 7.4 at 37° C., in a 250 microliter reaction volume. Assay tubes containing [3H] LSD (5 nM), competing ligand, and membrane were incubated in a shaking water bath for 60 min. at 37° C., filtered onto Packard GF-B plates (pre-soaked with 0.3% PEI) using a Packard 96 well cell harvester and washed 3 times in ice cold 50 mM Tris-HCl. Bound [^3H] LSD was determined as radioactive counts per minute using Packard TopCount.
Displacement of [3H]LSD from the binding sites was quantified by fitting concentration-binding data to a 4-parameter logistic equation:
[formula] where Hill is the Hill slope, [ligand] is the concentration of competing radioligand and IC50 is the concentration of radioligand producing half-maximal specific binding of radioligand. The specific binding window is the difference between the Bmax and the basal parameters.
Using the procedures of Example 6, compounds of Formula I were tested and found to be selective 5-HT6 antagonists.

T1 sequence (P50406 whole entry): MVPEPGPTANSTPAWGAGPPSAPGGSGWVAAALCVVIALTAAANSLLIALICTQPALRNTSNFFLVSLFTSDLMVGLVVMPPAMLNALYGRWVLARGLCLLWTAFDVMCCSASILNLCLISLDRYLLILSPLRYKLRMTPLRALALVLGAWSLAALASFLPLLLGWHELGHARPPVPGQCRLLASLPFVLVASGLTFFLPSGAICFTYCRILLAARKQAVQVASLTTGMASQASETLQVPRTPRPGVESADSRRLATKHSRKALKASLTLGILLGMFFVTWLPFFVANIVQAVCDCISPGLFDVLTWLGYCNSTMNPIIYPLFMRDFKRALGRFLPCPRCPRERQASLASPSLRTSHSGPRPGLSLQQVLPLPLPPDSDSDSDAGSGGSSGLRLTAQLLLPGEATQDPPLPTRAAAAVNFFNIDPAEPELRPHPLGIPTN

Row | SMILES | Ki
1 | CN1CCC(c2cccc3cc(S(=O)(=O)c4ccccc4)[nH]c23)CC1 [Compound 7, 2-Benzenesulfonyl-7-(1-methyl-piperidin-4-yl)-1H-indole] | 1 nM
2 | O=S(=O)(c1ccccc1)c1cc2cccc(C3CCNCC3)c2[nH]1 [Compound 6, 2-Benzenesulfonyl-7-piperidin-4-yl-1H-indole] | 0.631 nM
3 | O=S(=O)(c1cc2cccc(N3CCNCC3)c2[nH]1)c1cccc(Cl)c1Cl [Compound 3, 2-(2,3-Dichloro-benzenesulfonyl)-7-piperazin-1-yl-1H-indole] | 0.2 nM
4 | CN1CCN(c2cccc3cc(S(=O)(=O)c4cccc(Cl)c4Cl)[nH]c23)CC1 [Compound 4, 2-(2,3-Dichloro-benzenesulfonyl)-7-(4-methyl-piperazin-1-yl)-1H-indole] | 0.794 nM
5 | CN1CCN(c2cccc3cc(S(=O)(=O)c4ccccc4)[nH]c23)CC1 [Compound 2, 2-Benzenesulfonyl-7-(4-methyl-piperazin-1-yl)-1H-indole] | 0.794 nM
6 | O=S(=O)(c1cc2cccc(N3CCNCC3)c2[nH]1)c1ccccc1F [Compound 5, 2-(2-Fluoro-benzenesulfonyl)-7-piperazin-1-yl-1H-indole] | 0.501 nM
7 | O=S(=O)(c1ccccc1)c1cc2cccc(N3CCNCC3)c2[nH]1 [Compound 1, 2-Benzenesulfonyl-7-piperazin-1-yl-1H-indole] | 0.501 nM
8 | O=S(=O)(c1cc2cccc(N3CCNCC3)c2[nH]1)c1ccccc1C(F)(F)F [Compound 9, 7-Piperazin-1-yl-2-(2-trifluoromethyl-benzenesulfonyl)1H-indole] | 0.316 nM
9 | CN1CCN(c2cccc3cc(S(=O)(=O)c4cccc(Br)c4)[nH]c23)CC1 [Compound 10, 2-(3-Bromo-benzenesulfonyl)-7-(4-methyl-piperazin-1-yl)-1H-indole] | 0.251 nM
10 | CN1CCN(c2cccc3cc(S(=O)(=O)c4ccccc4C(F)(F)F)[nH]c23)CC1 [Compound 8, 7-(4-Methyl-piperazin-1-yl)-2-(2-trifluoromethyl-benzenesulfonyl)-1H-indole] | 0.316 nM
11 | O=S(=O)(c1cccc(Br)c1)c1cc2cccc(N3CCNCC3)c2[nH]1 [Compound 11, 2-(3-Bromo-benzenesulfonyl)-7-piperazin-1-yl-1H-indole] | 0.501 nM
